Experimental findings from US20080171766A1, “Novel Method” (SMITHKLINE BEECHAM CORPORATION, priority 2005, published 2008) are described below.

Assay [1] has as its system S. aureus VISA (vancomycin intermediate Staphylococcus aureus). Briefly: MIC by broth microdilution, VISA. It counts as cell-based. The procedure: (§1) Whole-cell antimicrobial activity was determined by broth microdilution. Test compounds were dissolved in DMSO and diluted 1:10 in water to produce a 64 mcg/ml stock solution. Using a 96 well microtitre plate, a Microlab AT Plus 2 (Hamilton Co., Reno, Nev.) serially diluted 50 ul of the stock solution into an appropriate broth medium. Staphylococcal isolates were tested using cation adjusted Mueller Hinton broth. For S. pneumonaie testing, the Mueller Hinton broth was supplemented with 5% lysed horse blood and H. influenzae was tested with Haemophilus Test Medium. After the compounds were diluted, a 50 ul aliquot of the test isolate (˜1×10^6 cfu/ml) prepared in normal saline was added to each well of the microtitre plate. The final test concentrations ranged from 0.016-16 ug/mL. Inoculated plates were incubated at 35 °C in ambient air for 18 to 24 hours. The minimum inhibitory concentration (MIC) was determined as the lowest concentration of compound that inhibited visible growth.
Background: Broth dilution looks for growth in wells or tubes with falling amounts of substance.

Assay [2] relates to S. aureus Linezolid resistant. Briefly: MIC by broth microdilution, linezolid resistant S. aureus. It counts as cell-based, Staphylococcus aureus. The note with it: S. aureus (3 isolates) Linezolid resistant. The procedure:
as §1

Assay [3] deals with H. influenzae BLNAR (beta lactamase negative ampicillin resistant). Briefly: MIC by broth microdilution, H. influenzae BLNAR. It is filed as cell-based. As to conditions: H. influenzae (5 isolates) BLNAR; Compound A n = 4. Here is the method: as §1
For assay [4], the system named is H. influenzae ClarR (clarithromycin resistant). Briefly: MIC by broth microdilution, H. influenzae ClarR. It is filed as cell-based. The note with it: H. influenzae (5 isolates) ClarR; Compound A n = 3. Here is the method:
as §1

Assay [5] relates to S. aureus MRSA (methicillin resistant Staphylococcus aureus). Briefly: MIC by broth microdilution, MRSA. The note with it: S. aureus MRSA (61 isolates); not all isolates tested against fusidic acid. It is filed as cell-based. Here is the method:
as §1

The subject of assay [6] is S. aureus Mupirocin^r (mupirocin resistant). Briefly: MIC by broth microdilution, mupirocin resistant S. aureus. It counts as cell-based, Staphylococcus aureus. As to conditions: S. aureus Mupirocin^r (32 isolates); not all isolates tested against fusidic acid. The procedure: as §1
In assay [7] the test system is S. aureus MRSA&Mup^r (methicillin resistant & mupirocin resistant Staphylococcus aureus). Briefly: MIC by broth microdilution, MRSA&Mup^r. It is filed as cell-based. The note with it: S. aureus MRSA&Mup^r (14 isolates); not all isolates tested against fusidic acid. The procedure:
as §1

Assay [8] relates to S. aureus Macrolide^r (macrolide resistant). Briefly: MIC by broth microdilution, macrolide resistant S. aureus. It is filed as cell-based, Staphylococcus aureus. The note with it: S. aureus Macrolide^r (69 isolates); not all isolates tested against fusidic acid. Here is the method: as §1
For assay [9], the system named is S. aureus Fusidic acid^r (fusidic acid resistant). Briefly: MIC by broth microdilution, fusidic acid resistant S. aureus. It is filed as cell-based, Staphylococcus aureus. The note with it: S. aureus Fusidic acid^r (6 isolates). Here is the method: as §1
Setting [10] is: S. aureus (4 isolates) VISA (vanc. MIC 4), second part of table.
Where [11] appears, read: S. aureus VISA (6 isolates), first part of table.

Converted amounts (≈) assume the structure as drawn.

Consider `CC1(C)S[C@@H]2[C@H](NC(=O)[C@H](N)c3ccc(O)cc3)C(=O)N2[C@H]1C(=O)O` [Amoxicillin], for which the “MIC Range” value is 8 to 32 µg/mL in assay [1] (setting [10]), over 32 µg/mL in assay [2] and 4 to 16 µg/mL in [3].
For `CC[C@H]1OC(=O)[C@H](C)[C@@H](O[C@H]2C[C@@](C)(OC)[C@@H](O)[C@H](C)O2)[C@H](C)[C@@H](O[C@@H]2O[C@H](C)C[C@H](N(C)C)[C@H]2O)[C@](C)(O)C[C@@H](C)CN(C)[C@H](C)[C@@H](O)[C@]1(C)O` [Azithromycin], the “MIC Range” value was 0.5 µg/mL (≈ 0.668 µM) in assay [2] and 1 to 2 µg/mL in [3].
On to `CO/N=C(\C(=O)N[C@@H]1C(=O)N2C(C(=O)O)=C(COC(N)=O)CS[C@H]12)c1ccco1` [Cefuroxime], for which the “MIC Range” value in [1] (setting [10]) was over 16 µg/mL; in assay [2] it was over 16 µg/mL; in assay [3], 8 to 16 µg/mL; in [4] it was 0.5 to 1 µg/mL.
Take `C=C[C@]1(C)C[C@@H](OC(=O)CSC2CC3CCC(C2)N3C)[C@]2(C)C(C)CC[C@]3(CCC(=O)[C@H]32)[C@@H](C)[C@@H]1O` (stereo partly drawn) [Compound A, mutilin 14-(exo-8-methyl-8azabicyclo[3.2.1]oct-3-ylsulfanyl)-acetate]: the “MIC Range” value in assay [5] was under 0.016 to 0.5 µg/mL; in assay [6] it was under 0.016 to 0.5 µg/mL; in [7] it was under 0.016 to 0.12 µg/mL; in assay [8] it was 0.03 to 0.5 µg/mL; in [9] it was under 0.016 to 0.03 µg/mL; in assay [1] (setting [10]), 0.06 to 1 µg/mL. In addition, the “MIC Range” value in [1] (setting [11]) was under 0.06 to 1 µg/mL; in assay [2] it was 1 to 2 µg/mL; in assay [3], 2 to 4 µg/mL; in assay [4], 0.12 to 0.25 µg/mL.
On to `CC(=O)O[C@H]1C[C@@]2(C)[C@@H](C[C@@H](O)[C@H]3[C@@]4(C)CC[C@@H](O)[C@@H](C)[C@@H]4CC[C@@]32C)/C1=C(\CCC=C(C)C)C(=O)O` [Fusidic acid], for which the “MIC Range” value was 0.12 to 1 µg/mL in assay [5], 0.12 to 0.5 µg/mL in assay [7], 0.12 to 1 µg/mL in assay [8] and over 16 µg/mL in assay [9].
In the case of `C[C@H]1COc2c(N3CCN(C)CC3)c(F)cc3c(=O)c(C(=O)O)cn1c23` [Levofloxacin], the “MIC Range” value in [1] (setting [10]) was 8 to 64 µg/mL; in assay [2], 16 µg/mL (≈ 44.3 µM); in assay [3], under 0.016 µg/mL; in assay [4], under 0.016 µg/mL.
Take `C/C(=C\C(=O)OCCCCCCCCC(=O)O)C[C@@H]1OC[C@H](C[C@@H]2O[C@H]2[C@@H](C)[C@H](C)O)[C@@H](O)[C@H]1O` [Mupirocin]: the “MIC Range” value in assay [1] (setting [11]) was under 1 µg/mL.
With `CC[C@H]1OC(=O)[C@H](C)C(=O)[C@H](C)[C@@H](O[C@@H]2O[C@H](C)C[C@H](N(C)C)[C@H]2O)[C@](C)(OC)C[C@@H](C)C(=O)[C@H](C)[C@H]2N(CCCCn3cnc(-c4cccnc4)c3)C(=O)O[C@]12C` [Telithromycin], the figures for the “MIC Range” value in assay [2] and in assay [3] were 0.03 to 0.06 µg/mL and 1 µg/mL (≈ 1.23 µM), respectively.
